This is an account of results in patent US7714023B2, “Treatment or prophylaxis of migraine or headache disorders using citalopram, escitalopram or citalopram metabolites” (priority 2004, dated 2010).

Values joined by “and” are separate entries in the source; they are usually repeats but may differ in a detail not shown here. Equal values may be shown once. Read-outs that look alike come from different tables or passages of the source.

One data set concerns NE uptake. Briefly: NE uptake, rat hypothalamus synaptosomes. The data set is classed as biochemical.
The target in a further data set is T1, NE transporter (Rattus norvegicus, UniProt Q63380).
T1 construct: Rat cerebral cortex; from tissue; host or cells: rat cerebral cortex
Put plainly: NE transporter binding, rat cerebral cortex, [3H]nisoxetine. The following applies: Table 2, ten concentrations; read-out: Transporter and Muscarinic Receptor Binding IC50 NE.

For another data set, the system named is DA uptake. Put plainly: DA uptake into rat corpora striatum synaptosomes. The class given is biochemical.
The test system of data set [1] is receptors for acetylcholine, histamine, norepinephrine, dopamine; monoamine oxidase; dopamine and norepinephrine reuptake sites. The following applies: Willets, 1999; cited from earlier work.
Data set [2] deals with cytochrome P450 enzymes (P450 4A, P4502C19, P450 2D6, P4501A2, P450 2C9, P450 2E1). The settings on record: in vitro; not by more than the stated degree; cited from earlier work.
In another data set the target is T2, NE transporter (h) (Homo sapiens, UniProt P23975).
T2 construct: expressed in transfected cells; host or cells: MDCK cells
Briefly: NE transporter (h) binding, [3H]nisoxetine.

For the next data set, the target named is T3, DA transporter (h) (Homo sapiens, UniProt Q01959).
T3 construct: expressed in transfected cells; host or cells: CHO cells
Put plainly: DA transporter (h) binding, [3H]GBR12935.

Another data set has as its system 5-HT uptake. Put plainly: 5-HT uptake into rat brain synaptosomes. The data set is classed as biochemical.
The target in a further data set is T4, 5-HT transporter (h) (Homo sapiens, UniProt P31645).
T4 construct: expressed in transfected cells; host or cells: HEK 293 cells
The data set is classed as binding.

Another data set has as its target T5, 5-HT transporter (Rattus norvegicus, UniProt P31652).
T5 construct: Rat cerebral cortex; from tissue; host or cells: rat cerebral cortex
Put plainly: 5-HT transporter binding, rat cerebral cortex, [3H]paroxetine. The following applies: Table 2, ten concentrations; read-out: Transporter and Muscarinic Receptor Binding IC50 5-HT rat.

A further data set deals with T6, DA transporter (Rattus norvegicus, UniProt P23977).
T6 construct: Rat striatum; from tissue; host or cells: rat striatum
Briefly: DA transporter binding, rat striatum, [3H]GBR12935. The following applies: Table 2, ten concentrations; read-out: Transporter and Muscarinic Receptor Binding IC50 DA.

Setting [3] is: Table 3, rat brain synaptosomes, read-out: Monoamine Uptake IC50 NE.
Setting [4] is: Table 3, rat brain synaptosomes, read-out: Monoamine Uptake IC50 DA.
[5] abbreviates: Table 1, rat brain synaptosomes, read-out: Functional Uptake IC50 NE.
Setting [6] is: Table 1, rat brain synaptosomes, read-out: Functional Uptake IC50 DA.
Where [7] appears, read: Table 1, racemic forms, duplicate, read-out: Transporter Binding IC50 NE.
Where [8] appears, read: Table 1, racemic forms, duplicate, read-out: Transporter Binding IC50 DA.
Where [9] appears, read: Table 1, rat brain synaptosomes, read-out: Functional Uptake IC50 5-HT.
The mark [10] stands for this setting: Table 3, human recombinant MDCK cells, [3H]-nisoxetine, read-out: Human Transporter Binding IC50 NE.
Setting [11] is: Table 3, human recombinant CHO cells, [3H]-GBR 12935, read-out: Human Transporter Binding IC50 DA.
The mark [12] stands for this setting: Table 3, rat brain synaptosomes, read-out: Monoamine Uptake IC50 5-HT.
Where [13] appears, read: Table 2, ten concentrations, read-out: Transporter and Muscarinic Receptor Binding IC50 5-HT human.

T2 sequence (P23975 whole entry): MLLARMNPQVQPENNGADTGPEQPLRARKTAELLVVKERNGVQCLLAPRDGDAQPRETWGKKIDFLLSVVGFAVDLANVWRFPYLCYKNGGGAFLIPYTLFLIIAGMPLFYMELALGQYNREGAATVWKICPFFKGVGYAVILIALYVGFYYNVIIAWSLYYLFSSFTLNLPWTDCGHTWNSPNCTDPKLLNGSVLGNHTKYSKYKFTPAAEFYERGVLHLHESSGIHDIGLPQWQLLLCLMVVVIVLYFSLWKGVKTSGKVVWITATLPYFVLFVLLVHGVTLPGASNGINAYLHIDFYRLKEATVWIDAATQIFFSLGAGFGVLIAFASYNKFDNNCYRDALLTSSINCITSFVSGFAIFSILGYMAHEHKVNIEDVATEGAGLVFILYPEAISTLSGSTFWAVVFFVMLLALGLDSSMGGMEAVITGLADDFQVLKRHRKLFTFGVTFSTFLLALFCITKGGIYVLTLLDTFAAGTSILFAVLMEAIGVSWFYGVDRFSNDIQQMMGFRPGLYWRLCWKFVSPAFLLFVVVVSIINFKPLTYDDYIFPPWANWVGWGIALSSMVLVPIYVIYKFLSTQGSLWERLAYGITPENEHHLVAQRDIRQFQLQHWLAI
T5 sequence (P31652 whole entry): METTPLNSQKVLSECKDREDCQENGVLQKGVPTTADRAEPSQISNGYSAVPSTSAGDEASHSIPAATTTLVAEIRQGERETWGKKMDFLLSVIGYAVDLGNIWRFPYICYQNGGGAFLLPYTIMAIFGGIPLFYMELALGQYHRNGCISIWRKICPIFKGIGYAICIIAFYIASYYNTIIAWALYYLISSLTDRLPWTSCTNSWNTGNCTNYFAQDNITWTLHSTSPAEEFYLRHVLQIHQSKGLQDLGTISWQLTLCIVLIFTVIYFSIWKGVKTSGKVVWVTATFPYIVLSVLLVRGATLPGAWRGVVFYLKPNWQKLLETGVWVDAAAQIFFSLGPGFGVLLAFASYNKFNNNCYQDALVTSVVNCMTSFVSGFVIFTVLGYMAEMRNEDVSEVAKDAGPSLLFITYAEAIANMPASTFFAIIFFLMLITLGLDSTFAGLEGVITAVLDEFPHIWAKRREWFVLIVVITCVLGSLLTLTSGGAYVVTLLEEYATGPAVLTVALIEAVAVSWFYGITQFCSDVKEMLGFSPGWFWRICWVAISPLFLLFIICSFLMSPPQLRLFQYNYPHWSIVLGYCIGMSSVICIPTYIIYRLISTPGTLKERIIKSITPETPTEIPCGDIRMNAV
T3 sequence (Q01959 whole entry): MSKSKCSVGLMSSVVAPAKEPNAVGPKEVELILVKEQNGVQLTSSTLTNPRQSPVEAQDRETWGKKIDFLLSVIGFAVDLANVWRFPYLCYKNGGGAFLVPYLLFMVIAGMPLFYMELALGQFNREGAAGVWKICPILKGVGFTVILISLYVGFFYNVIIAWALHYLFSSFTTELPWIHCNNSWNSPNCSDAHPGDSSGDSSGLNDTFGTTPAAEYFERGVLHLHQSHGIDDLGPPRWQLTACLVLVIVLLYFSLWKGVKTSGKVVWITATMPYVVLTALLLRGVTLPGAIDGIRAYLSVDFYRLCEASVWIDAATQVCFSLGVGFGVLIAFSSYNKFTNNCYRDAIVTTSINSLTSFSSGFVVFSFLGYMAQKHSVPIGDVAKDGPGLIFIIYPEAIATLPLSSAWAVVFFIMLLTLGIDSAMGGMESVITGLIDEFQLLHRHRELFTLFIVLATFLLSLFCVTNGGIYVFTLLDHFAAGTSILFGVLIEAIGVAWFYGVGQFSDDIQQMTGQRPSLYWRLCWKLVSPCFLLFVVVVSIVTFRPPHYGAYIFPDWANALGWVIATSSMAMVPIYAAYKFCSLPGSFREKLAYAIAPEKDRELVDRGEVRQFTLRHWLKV
T6 sequence (P23977 whole entry): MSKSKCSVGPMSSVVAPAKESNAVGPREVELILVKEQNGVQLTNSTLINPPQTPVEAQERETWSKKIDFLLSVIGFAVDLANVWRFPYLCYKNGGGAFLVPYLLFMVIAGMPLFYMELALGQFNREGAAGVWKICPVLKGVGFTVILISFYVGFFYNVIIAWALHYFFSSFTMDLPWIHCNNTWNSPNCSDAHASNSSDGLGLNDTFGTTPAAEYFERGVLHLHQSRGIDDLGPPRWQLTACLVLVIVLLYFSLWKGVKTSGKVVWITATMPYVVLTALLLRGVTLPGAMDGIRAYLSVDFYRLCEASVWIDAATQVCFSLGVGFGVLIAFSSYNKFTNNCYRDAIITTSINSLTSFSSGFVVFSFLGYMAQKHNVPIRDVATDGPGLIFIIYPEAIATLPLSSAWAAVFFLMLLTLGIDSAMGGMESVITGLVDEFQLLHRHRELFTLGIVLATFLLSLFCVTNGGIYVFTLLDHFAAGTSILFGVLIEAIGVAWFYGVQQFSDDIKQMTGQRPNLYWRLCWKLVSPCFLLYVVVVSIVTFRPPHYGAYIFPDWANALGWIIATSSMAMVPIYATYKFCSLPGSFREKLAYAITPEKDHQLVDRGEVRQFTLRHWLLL
T1 sequence (Q63380 1-617): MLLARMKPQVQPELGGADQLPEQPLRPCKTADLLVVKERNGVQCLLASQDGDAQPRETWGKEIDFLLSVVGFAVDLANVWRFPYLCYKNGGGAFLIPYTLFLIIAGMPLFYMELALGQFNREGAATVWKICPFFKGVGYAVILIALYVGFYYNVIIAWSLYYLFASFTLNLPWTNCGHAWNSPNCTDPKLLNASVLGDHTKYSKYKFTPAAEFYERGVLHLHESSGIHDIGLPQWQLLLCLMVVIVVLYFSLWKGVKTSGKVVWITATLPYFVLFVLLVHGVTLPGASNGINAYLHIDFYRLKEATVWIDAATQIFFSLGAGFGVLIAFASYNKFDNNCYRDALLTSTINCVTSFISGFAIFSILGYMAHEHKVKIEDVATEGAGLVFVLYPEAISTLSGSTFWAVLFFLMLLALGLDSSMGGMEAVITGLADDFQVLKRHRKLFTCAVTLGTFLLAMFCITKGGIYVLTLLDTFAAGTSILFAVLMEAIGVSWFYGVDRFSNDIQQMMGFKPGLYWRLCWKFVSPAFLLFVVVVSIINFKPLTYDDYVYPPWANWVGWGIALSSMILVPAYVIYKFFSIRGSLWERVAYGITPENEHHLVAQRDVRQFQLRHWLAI
T4 sequence (P31645 whole entry): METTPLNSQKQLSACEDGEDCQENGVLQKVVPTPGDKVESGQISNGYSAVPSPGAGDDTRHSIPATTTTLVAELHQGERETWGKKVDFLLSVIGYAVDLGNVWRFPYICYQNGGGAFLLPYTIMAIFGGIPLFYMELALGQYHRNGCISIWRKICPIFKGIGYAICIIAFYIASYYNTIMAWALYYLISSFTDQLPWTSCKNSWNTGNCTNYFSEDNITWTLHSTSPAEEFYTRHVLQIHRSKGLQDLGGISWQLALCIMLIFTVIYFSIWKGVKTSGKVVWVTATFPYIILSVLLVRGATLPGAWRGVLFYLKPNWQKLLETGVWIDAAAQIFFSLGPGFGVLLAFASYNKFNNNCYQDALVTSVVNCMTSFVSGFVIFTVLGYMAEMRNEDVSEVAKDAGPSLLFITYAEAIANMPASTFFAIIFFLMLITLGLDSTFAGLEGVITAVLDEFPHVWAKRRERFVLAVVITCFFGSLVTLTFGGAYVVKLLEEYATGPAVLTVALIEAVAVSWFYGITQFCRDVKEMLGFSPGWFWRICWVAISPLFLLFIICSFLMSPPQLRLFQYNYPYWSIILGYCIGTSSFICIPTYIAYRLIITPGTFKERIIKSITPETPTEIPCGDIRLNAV

Take `CN(C)CCCC1(c2ccc(F)cc2)OCc2cc(C#N)ccc21` (racemic) [Citalopram HBr (racemic), reference compound]: the IC50 is 4.9 µM in the data set with NE uptake (setting [3]), 4.74 µM at NE transporter and 13 µM with DA uptake (setting [4]).

In the case of `CN(C)CCCC1(c2ccc(F)cc2)OCc2cc(C#N)ccc21` (racemic) [Racemic citalopram, (±)-1-(3-dimethylaminopropyl)-1-(4-fluorophenyl)-1,3-dihydroisobenzofuran-5-carbonitrile, reference compound], the figures for the IC50 with NE uptake (setting [5]) and with DA uptake (setting [6]) were 3.6 µM and 17 µM, respectively. The “affinity for receptors for various neurotransmitters, enzymes and other reuptake sites” value in [1] is “negligible affinity”. For the same molecule, in data set [2], the “inhibition of the activity of cytochrome P450 enzymes” value is “mild degree”.

Consider `CNCCCC1(c2ccc(F)cc2)OCc2cc(C#N)ccc21` (racemic) [Racemic desmethylcitalopram], for which the IC50 amounted to 1.2 µM in the data set on NE uptake (setting [5]); 15.5 µM at NE transporter (h) (setting [7]); 3.73 µM at DA transporter (h) (setting [8]); 0.013 µM in the data set on 5-HT uptake (setting [9]); 38 µM in the data set with DA uptake (setting [6]). Moreover, in data set [2], the “inhibition of the activity of cytochrome P450 enzymes” value is “mild degree”.

Take `N#Cc1ccc2c(c1)COC2(CCCN)c1ccc(F)cc1` (racemic) [Racemic didesmethylcitalopram, 3-5-Cyano-1-(4-fluorophenyl)-1,3-dihydro-isobenzofuran-1-yl-propyl amine]: the IC50 turned out to be 1.6 µM with NE uptake (setting [5]); 0.085 µM on 5-HT transporter (h) (Table 1, racemic forms, duplicate, read-out: Transporter Binding IC50 5-HT); 21.2 µM at NE transporter (h) (setting [7]); 13.2 µM on DA transporter (h) (setting [8]); 0.038 µM with 5-HT uptake (setting [9]); 8.9 µM with DA uptake (setting [6]).

As for `CNCCC[C@]1(c2ccc(F)cc2)OCc2cc(C#N)ccc21` [(R)(−)-Desmethylcitalopram], the IC50 amounted to 1.7 µM with NE uptake (setting [3]); 0.815 µM at NE transporter (h) (setting [10]); 37.6 µM at DA transporter (h) (setting [11]); 0.92 µM on NE transporter; 0.11 µM with 5-HT uptake (setting [12]); 0.011 µM on 5-HT transporter. For the same molecule, the results for the IC50 at DA transporter and with DA uptake (setting [4]) were 58 µM and 9.4 µM, respectively.

Take `N#Cc1ccc2c(c1)CO[C@]2(CCCN)c1ccc(F)cc1` [(R)(−)-Didesmethylcitalopram]: the IC50 came out at 1.3 µM in the data set on NE uptake (setting [3]); 0.014 µM on 5-HT transporter (h) (setting [13]); 5.52 µM on NE transporter (h) (setting [10]); 38.9 µM on DA transporter (h) (setting [11]); 3.62 µM on NE transporter; 0.13 µM in the data set with 5-HT uptake (setting [12]). In addition, the IC50 at 5-HT transporter amounted to 0.027 µM; at DA transporter, 14.1 µM; in the data set on DA uptake (setting [4]) it was 27 µM.

As for `CNCCC[C@@]1(c2ccc(F)cc2)OCc2cc(C#N)ccc21` [(S)(+)-Desmethylcitalopram], the IC50 in the data set with NE uptake (setting [3]) was determined as 4.1 µM; at NE transporter (h) (setting [10]) it was 10.3 µM; at DA transporter (h) (setting [11]) it was 27.7 µM; at NE transporter it was 11.5 µM; with 5-HT uptake (setting [12]), 0.0058 µM; on 5-HT transporter it was 0.0013 µM. The IC50 amounted to 79.5 µM at DA transporter and 7.6 µM in the data set on DA uptake (setting [4]).

Turning to `N#Cc1ccc2c(c1)CO[C@@]2(CCCN)c1ccc(F)cc1` [(S)(+)-Didesmethylcitalopram], the IC50 in the data set with NE uptake (setting [3]) came out at 3.3 µM; on 5-HT transporter (h) (setting [13]), 0.219 µM; on NE transporter (h) (setting [10]) it was 24.2 µM; on DA transporter (h) (setting [11]), 54.7 µM; at NE transporter, 20.1 µM; in the data set on 5-HT uptake (setting [12]), 0.18 µM. Also, the values for the IC50 on 5-HT transporter, at DA transporter and in the data set with DA uptake (setting [4]) were 0.019 µM, 71.1 µM and 11 µM, respectively. The “fold higher affinity than its antipode, human 5-HT transporter” value at 5-HT transporter (h) turned out to be 16 fold.

With `CN(C)CCCN1c2ccccc2CCc2ccccc21` [Imipramine, reference compound], the IC50 in the data set with 5-HT uptake (setting [9]) came to […]; in the data set on 5-HT uptake (setting [12]) it was […].

In the case of `CNCCCC1c2ccccc2C=Cc2ccccc21` [Protriptyline, reference compound], the IC50 was 0.0023 µM in the data set on NE uptake (setting [3]); 0.0067 µM and 0.015 µM at DA transporter (h) (setting [8]); 0.001 µM in the data set with DA uptake (setting [6]).

The term IC50 denotes the point on the concentration scale where inhibition reaches its midpoint.
